From patent US9409914B2, “Triazolo[4,5-d]pyrimidine derivatives” (Merck Patent GmbH, priority 2012, dated 2016)

molecular target: GCN2 (Homo sapiens, UniProt Q9P2K8); assay: GCN2 enzyme assay (TR-FRET Lanthascreen, phosphorylation of GFP-eIF2alpha); assay type: biochemical; conditions: 10 μM ATP, 80 nM GFP-eIF2alpha, 30 nM GCN2, room temperature
Source text: GCN2: Assay principle & conditions
This assay can quantificate the activity of the serin kinase GCN2 (general control non-derepressible-2).
This kinase is involved in the stress metabolism of cells. It is activated upon starvation (amino acid depletion). Its natural substrate is eIF2a (eukaryotic initiation factor 2 alpha subunit), a translation factor, which gets activated (phosphorylated) by GCN2 in case of an amino acid bottleneck in the cells. This in turn leads to a halt of the protein synthesis. Inhibition of GCN2 results in stopping this mechanism: The cell can not stop protein production upon “starvation” stress.
The assay is run in two steps: the enzymatic reaction and the detection step. In the first step GCN2 is incubated with 10 μM ATP and 80 nM of the GFP-labelled substrate eIF2alpha at room temperature.
The enzymatic reaction is stopped by addition of EDTA. The amount of phosphorylated eIF2alpha is determined by TR-FRET (Lanthascreen): A complex is formed consisting of antibody and GFP labelled phospho-eIF2a, which allows a FRET upon exitation at 340 nm.
The GCN2-activity is directly proportional to the ratio of fluorescence units at the emission wavelengthh 520 nm (phosphopeptide-sensitive wavelength=emission of GFP) to the units at 495 nm (reference wavelength=emission of Terbium-chelate).
Final Concentrations in the Enzymatic Reaction

Chain of GCN2 (Q9P2K8 whole entry, species assumed): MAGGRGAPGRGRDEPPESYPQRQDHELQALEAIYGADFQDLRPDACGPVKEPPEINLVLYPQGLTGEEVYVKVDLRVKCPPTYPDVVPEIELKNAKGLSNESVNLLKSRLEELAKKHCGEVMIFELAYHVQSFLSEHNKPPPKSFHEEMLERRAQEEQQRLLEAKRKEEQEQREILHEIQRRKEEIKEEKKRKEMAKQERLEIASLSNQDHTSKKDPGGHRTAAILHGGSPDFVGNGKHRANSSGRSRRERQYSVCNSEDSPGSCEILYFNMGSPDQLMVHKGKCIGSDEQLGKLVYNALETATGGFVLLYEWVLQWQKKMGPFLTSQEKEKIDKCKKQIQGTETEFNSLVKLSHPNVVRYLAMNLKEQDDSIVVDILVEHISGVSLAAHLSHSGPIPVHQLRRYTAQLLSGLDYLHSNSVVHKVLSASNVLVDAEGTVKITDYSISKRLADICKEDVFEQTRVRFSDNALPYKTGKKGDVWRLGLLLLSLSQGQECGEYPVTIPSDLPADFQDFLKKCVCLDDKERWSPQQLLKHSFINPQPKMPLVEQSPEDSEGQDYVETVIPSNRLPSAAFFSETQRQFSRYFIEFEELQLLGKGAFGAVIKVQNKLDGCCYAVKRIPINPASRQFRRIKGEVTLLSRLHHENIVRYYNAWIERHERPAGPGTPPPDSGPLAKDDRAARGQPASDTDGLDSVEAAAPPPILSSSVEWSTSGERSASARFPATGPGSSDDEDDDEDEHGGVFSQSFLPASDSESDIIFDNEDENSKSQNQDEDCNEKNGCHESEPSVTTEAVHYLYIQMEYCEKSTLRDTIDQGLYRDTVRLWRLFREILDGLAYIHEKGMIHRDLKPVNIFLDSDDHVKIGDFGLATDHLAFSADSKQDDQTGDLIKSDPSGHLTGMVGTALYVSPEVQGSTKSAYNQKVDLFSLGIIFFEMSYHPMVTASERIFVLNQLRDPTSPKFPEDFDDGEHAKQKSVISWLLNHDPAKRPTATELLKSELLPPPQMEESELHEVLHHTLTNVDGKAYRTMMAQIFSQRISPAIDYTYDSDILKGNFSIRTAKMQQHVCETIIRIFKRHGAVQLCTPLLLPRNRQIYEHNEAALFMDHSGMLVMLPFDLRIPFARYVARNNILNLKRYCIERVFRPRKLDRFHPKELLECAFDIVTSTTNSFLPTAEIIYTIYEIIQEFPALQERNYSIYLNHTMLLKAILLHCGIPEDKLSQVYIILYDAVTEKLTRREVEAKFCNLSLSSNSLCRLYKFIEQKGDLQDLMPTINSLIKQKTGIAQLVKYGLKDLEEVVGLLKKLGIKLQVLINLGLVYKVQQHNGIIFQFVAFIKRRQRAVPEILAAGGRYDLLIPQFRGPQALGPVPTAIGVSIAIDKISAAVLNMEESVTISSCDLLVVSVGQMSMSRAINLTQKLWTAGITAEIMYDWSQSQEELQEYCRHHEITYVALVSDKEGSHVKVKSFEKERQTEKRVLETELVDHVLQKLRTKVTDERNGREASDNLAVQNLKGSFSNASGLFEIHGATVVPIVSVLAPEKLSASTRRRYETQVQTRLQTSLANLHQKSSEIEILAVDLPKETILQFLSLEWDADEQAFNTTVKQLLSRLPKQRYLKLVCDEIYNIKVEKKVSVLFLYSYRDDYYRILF

Compound	IC50
CCCCOc1ccc(-n2nnc3cnc(Nc4cnn(CC)c4)nc32)cn1 [Compound A57, [3-(6-butoxy-pyridin-3-yl)-3H-[1,2,3]triazolo[4,5-d]-pyrimidin-5-yl]-(1-ethyl-1H-pyrazol-4-yl)-amine]	300 to 3000 nM
CCn1cc(Nc2ncc3nnn(-c4ccc(NC(C)=O)nc4)c3n2)cn1 [Compound A58, N-{5-[5-(1-ethyl-1H-pyrazol-4-ylamino)-[1,2,3]triazolo[4,5-d]pyrimidin-3-yl]-pyridin-2-yl}-acetamide]	< 300 nM
CCn1cc(Nc2ncc3nnn(-c4cnc5ccccc5c4)c3n2)cn1 [Compound A61, (1-ethyl-1H-pyrazol-4-yl)-(3-quinolin-3-yl-3H-[1,2,3]triazolo[4,5-d]pyrimidin-5-yl)-amine]	< 300 nM
CCn1cc(Nc2ncc3nnn(-c4ccnc(OC)c4)c3n2)cn1 [Compound A62, (1-ethyl-1H-pyrazol-4-yl)-[3-(2-methoxy-pyridin-4-yl)-3H-[1,2,3]triazolo[4,5-d]pyrimidin-5-yl]-amine]	< 300 nM
CCn1cc(Nc2ncc3nnn(-c4ccc(F)cc4)c3n2)cn1 [Compound A63, (1-ethyl-1H-pyrazol-4-yl)-[3-(4-fluoro-phenyl)-3H-[1,2,3]triazolo[4,5-d]pyrimidin-5-yl]-amine]	< 300 nM
CCOc1ccc(-n2nnc3cnc(Nc4cnn(-c5ccccc5)c4)nc32)cc1 [Compound A64, [3-(4-ethoxy-phenyl)-3H-[1,2,3]triazolo[4,5-d]pyrimidin-5-yl]-(1-phenyl-1H-pyrazol-4-yl)-amine]	< 300 nM
CCn1cc(Nc2ncc3nnn(-c4ccc(O)cc4)c3n2)cn1 [Compound A66, 4-[5-(1-ethyl-1H-pyrazol-4-ylamino)-[1,2,3]triazolo[4,5-d]pyrimidin-3-yl]-phenol]	< 300 nM
CCn1cc(Nc2ncc3nnn(-c4ccc(F)cc4C#N)c3n2)cn1 [Compound A72, 2-[5-(1-ethyl-1H-pyrazol-4-ylamino)-[1,2,3]triazolo[4,5-d]pyrimidin-3-yl]-5-fluoro-benzonitrile]	300 to 3000 nM
CN1CCC(n2cc(Nc3ncc4nnn(-c5ccc(F)cc5C#N)c4n3)cn2)CC1 [Compound A74, 5-fluoro-2-{5-[1-(1-methyl-piperidin-4-yl)-1H-pyrazol-4-ylamino]-[1,2,3]triazolo[4,5-d]pyrimidin-3-yl}-benzonitrile]	300 to 3000 nM
COc1cc(-n2nnc3cnc(Nc4cnn(C5CCOCC5)c4)nc32)ccn1 [Compound A78, [3-(2-methoxy-pyridin-4-yl)-3H-[1,2,3]triazolo[4,5-d]pyrimidin-5-yl]-[1-(tetrahydro-pyran-4-yl)-1H-pyrazol-4-yl]-amine]	< 300 nM
c1cnc2cc(-n3nnc4cnc(Nc5cnn(C6CCOCC6)c5)nc43)ccc2c1 [Compound A86, (3-quinolin-7-yl-3H-[1,2,3]triazolo[4,5-d]pyrimidin-5-yl)-[1-(tetrahydro-pyran-4-yl)-1H-pyrazol-4-yl]-amine]	< 300 nM
CCOc1ccc(-n2nnc3cnc(Nc4cnn(CCC(C)C)c4)nc32)cc1 [Compound A88, [3-(4-ethoxy-phenyl)-3H-[1,2,3]triazolo[4,5-d]pyrimidin-5-yl]-[1-(3-methyl-butyl)-1H-pyrazol-4-yl]-amine]	< 300 nM
CCn1cc(-n2nnc3cnc(Nc4cnn(CCC(C)C)c4)nc32)cn1 [Compound A89, [3-(1-ethyl-1H-pyrazol-4-yl)-3H-[1,2,3]triazolo[4,5-d]pyrimidin-5-yl]-[1-(3-methyl-butyl)-1H-pyrazol-4-yl]-amine]	< 300 nM
CC(C)CCn1cc(Nc2ncc3nnn(-c4ccc5ncccc5c4)c3n2)cn1 [Compound A90, [1-(3-methyl-butyl)-1H-pyrazol-4-yl]-(3-quinolin-6-yl-3H-[1,2,3]triazolo[4,5-d]pyrimidin-5-yl)-amine]	< 300 nM

Next, values leading:

IC50	Compound
< 300 nM	c1cnc2cc(-n3nnc4cnc(Nc5cnn(C6CCOCC6)c5)nc43)ccc2n1 [Compound A94, (3-quinoxalin-6-yl-3H-[1,2,3]triazolo[4,5-d]pyrimidin-5-yl)-[1-(tetrahydro-pyran-4-yl)-1H-pyrazol-4-yl]-amine]
300 to 3000 nM	O[C@H]1CC[C@@H](n2cc(Nc3ncc4nnn(-c5ccc(Cl)c(F)c5)c4n3)cn2)CC1 [Compound A102, 4-{4-[3-(4-chloro-3-fluoro-phenyl)-3H-[1,2,3]triazolo[4,5-d]pyrimidin-5-ylamino]-pyrazol-1-yl}-cyclohexanol]
< 300 nM	O[C@H]1CC[C@@H](n2cc(Nc3ncc4nnn(-c5ccc6nccnc6c5)c4n3)cn2)CC1 [Compound A105, 4-[4-(3-quinoxalin-6-yl-3H-[1,2,3]triazolo[4,5-d]pyrimidin-5-ylamino)-pyrazol-1-yl]-cyclohexanol]
300 to 3000 nM	COc1ccc(-n2nnc3cnc(Nc4cnn([C@H]5CC[C@H](O)CC5)c4)nc32)cn1 [Compound A109, 4-{4-[3-(6-methoxy-pyridin-3-yl)-3H-[1,2,3]triazolo[4,5-d]pyrimidin-5-ylamino]-pyrazol-1-yl}-cyclohexanol]
300 to 3000 nM	Fc1ccc(-n2nnc3cnc(Nc4cnn(C5CCOCC5)c4)nc32)cc1Cl [Compound A110, [3-(3-chloro-4-fluoro-phenyl)-3H-[1,2,3]triazolo[4,5-d]pyrimidin-5-yl]-[1-(tetrahydro-pyran-4-yl)-1H-pyrazol-4-yl]-amine]
300 to 3000 nM	c1cnc2cc(-n3nnc4cnc(Nc5cnn(C6COC6)c5)nc43)ccc2c1 [Compound A112, (1-oxetan-3-yl-1H-pyrazol-4-yl)-(3-quinolin-7-yl-3H-[1,2,3]triazolo[4,5-d]pyrimidin-5-yl)-amine]
< 300 nM	COC(=O)c1ccc(-n2nnc3cnc(Nc4cnn(C5CCOCC5)c4)nc32)cc1 [Compound A113, 4-{5-[1-(tetrahydro-pyran-4-yl)-1H-pyrazol-4-ylamino]-[1,2,3]triazolo[4,5-d]pyrimidin-3-yl}-benzoic acid methyl ester]
300 to 3000 nM	Fc1cc(-n2nnc3cnc(Nc4cnn(CCN5CCOCC5)c4)nc32)ccc1Cl [Compound A114, [3-(4-chloro-3-fluoro-phenyl)-3H-[1,2,3]triazolo[4,5-d]pyrimidin-5-yl]-[1-(2-morpholin-4-yl-ethyl)-1H-pyrazol-4-yl]-amine]
300 to 3000 nM	Fc1ccc(-n2nnc3cnc(Nc4cnn(C5CCOCC5)c4)nc32)cc1F [Compound A116, [3-(3,4-difluoro-phenyl)-3H-[1,2,3]triazolo[4,5-d]pyrimidin-5-yl]-[1-(tetrahydro-pyran-4-yl)-1H-pyrazol-4-yl]-amine]
< 300 nM	Fc1cccc(-n2nnc3cnc(Nc4cnn(CCCC5CCNCC5)c4)nc32)c1 [Compound A129, [3-(3-fluoro-phenyl)-3H-[1,2,3]triazolo[4,5-d]pyrimidin-5-yl]-[1-(3-piperidin-4-yl-propyl)-1H-pyrazol-4-yl]-amine]
< 300 nM	O=S(=O)(c1ccc(-n2nnc3cnc(Nc4cnn(CCn5cccn5)c4)nc32)cc1)N1CCCC1 [Compound A133, [1-(2-pyrazol-1-yl-ethyl)-1H-pyrazol-4-yl]-{3-[4-(pyrrolidine-1-sulfonyl)-phenyl]-3H-[1,2,3]triazolo[4,5-d]-pyrimidin-5-yl}-amine]
300 to 3000 nM	c1cnc2cc(-n3nnc4cnc(Nc5cnn(CCn6cccn6)c5)nc43)ccc2c1 [Compound A134, [1-(2-pyrazol-1-yl-ethyl)-1H-pyrazol-4-yl]-(3-quinolin-7-yl-3H-[1,2,3]triazolo[4,5-d]pyrimidin-5-yl)-amine]
